Eleven compounds from article PMC3738572, “Improved Bone Morphogenetic Protein-2 Retention in an Injectable Collagen Matrix Using Bifunctional Peptides” (PLoS ONE, 2013) can be followed below.

Like-named read-outs stand apart in the source and are kept apart here. Residues, ends and D or L forms follow the SMILES beside them. *: point of attachment. Biotin = O=C1N[C@H]2[C@H](CS[C@H]2CCCCC(=O)*)N1

Assay [1] addresses T1, rhBMP-2 (Homo sapiens, UniProt P12643).
T1 construct: purchased R&D Systems 355-BM/CF
T1 sequence (P12643 283-396): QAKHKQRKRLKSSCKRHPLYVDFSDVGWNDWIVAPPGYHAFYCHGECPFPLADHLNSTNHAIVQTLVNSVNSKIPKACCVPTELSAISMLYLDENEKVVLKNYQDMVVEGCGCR
The experiment in a line: BMP-2 peptide binding assay (biotinylated peptide immobilized on streptavidin plate, rhBMP-2 titrated). The source says: To measure the ability of a BMP-binding peptide to capture its target growth factor out of buffer or a complex biological solution such as plasma, biotinylated peptides were immobilized onto a streptavidin-coated 96 well plate. Varying low nanomolar concentrations of BMP-2 were “spiked” into human plasma or Tris-buffered saline (0.5 M NaCl), 0.05% Tween-20 (TBST) and added to the peptide-containing plates. […] Adding p-NPP produced a colored reactant, which was quantified using a SpectroMax (Molecular Devices) plate reader at 405 nm.

The target in assay [2] is T2, rhBMP-7 (Homo sapiens, UniProt P18075).
T2 sequence (P18075 293-431): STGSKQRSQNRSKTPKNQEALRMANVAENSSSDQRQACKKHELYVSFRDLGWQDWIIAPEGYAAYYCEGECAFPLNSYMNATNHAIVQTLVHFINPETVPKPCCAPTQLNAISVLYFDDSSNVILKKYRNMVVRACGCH
The experiment in a line: Peptide cross-reactivity to other growth factors. Particulars: Figure 5; growth factor titrated in TBST for 1 h on immobilized peptide; antibody and p-NPP detection; read-out: EC50, BMP-7. The class given is binding. The protocol:
(§1) To measure the ability of a BMP-binding peptide to capture its target growth factor out of buffer or a complex biological solution such as plasma, biotinylated peptides were immobilized onto a streptavidin-coated 96 well plate. Varying low nanomolar concentrations of BMP-2 were “spiked” into human plasma or Tris-buffered saline (0.5 M NaCl), 0.05% Tween-20 (TBST) and added to the peptide-containing plates. After 1 hr incubation at room temperature (RT), plates were washed and incubated with an anti-BMP-2 antibody followed by a goat anti-mouse secondary antibody conjugated to alkaline phosphatase. Adding p-NPP produced a colored reactant, which was quantified using a SpectroMax (Molecular Devices) plate reader at 405 nm.
(§2) Figure 5 Peptide cross-reactivity to other growth factors. Peptides B-17 (A) and B-18 (B) were immobilized on a streptavidin-coated plate, and a range of concentrations of growth factors in the TGF-β superfamily were titrated onto the plate in TBST for 1 h. Growth factor binding was analyzed using antibody and p-NPP detection. […] Peptide B-17 also cross-reacted with rhBMP-3, rhBMP-5, and rhBMP-12. The peptides had lower affinities for all other growth factors tested. Data are presented as the absorbance read at 405 nm.

The target in assay [3] is T3, rhBMP-6 (Homo sapiens, UniProt P22004).
T3 sequence (P22004 375-513): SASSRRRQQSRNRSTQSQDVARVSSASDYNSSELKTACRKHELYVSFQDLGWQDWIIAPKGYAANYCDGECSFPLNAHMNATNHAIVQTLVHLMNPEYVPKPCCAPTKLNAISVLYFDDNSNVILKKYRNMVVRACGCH
Nature of the assay: Peptide cross-reactivity to other growth factors. The format is binding. Conditions: Figure 5; growth factor titrated in TBST for 1 h on immobilized peptide; antibody and p-NPP detection; read-out: EC50, BMP-6. On the procedure:
as §1, §2

For assay [4], the target named is T4, rhBMP-2 binding to injectable collagen gel (Homo sapiens, UniProt P12643).
T4 construct: purchased R&D Systems 355-BM/CF
T4 sequence (P12643 283-396): T1 sequence (P12643 283-396)
Nature of the assay: Injectable collagen gel binding assay. Conditions: tested for the ability to bind BMP-2 to a collagen gel. The protocol: The injectable collagen gel (0.1 mL) was aliquoted into a polypropylene plate. The plate was blocked with 150 µl of 1% BSA in TBS for 30 min. After spinning for 2 min, the supernatant was removed without disrupting the collagen gel. […] The wells were then washed, and an alkaline phosphatase labeled goat anti-mouse secondary antibody was added. After incubation and washing, binding was measured using the chromogenic reagent p-NPP, and absorbance was read at 405 nm.

Assay [5] relates to ectopic bone formation. Nature of the assay: In vivo ectopic bone formation study. On the set-up: species or system rat. On the procedure:
Male Sprague Dawley rats (150–175 g) were obtained from […], Charles River Laboratories (Raleigh, NC) and acclimated prior to surgery. The surgery was performed under general anesthesia by weight-adapted intraperitoneal injection of Xylazine 2% (Medistar; 12 mg/kg body weight) and Ketamine hydrochloride (Ketaset; 100 mg/mL; 80 mg/kg body weight). The thorax and abdomen were shaved and scrubbed with Betadine and alcohol. Using aseptic technique, two 5 mm incisions were made at the midline so that two subcutaneous pouches were prepared by blunt dissection. […] Each rat received two injections and a total of 20 animals were used in the study. […] In those experiments, rats were implanted with collagen gel containing either 1 or 5 μg of BMP-2.
The sites containing the injected material were explanted at two weeks and fixed in 10% neutral buffered formalin. The samples were placed in Formical 2000 decalcifier (American Mastertech) for 24 hours followed by Cal-arrest neutralizing solution for one hour. The tissue samples were processed in a Thermo-Electron, Shandon Excelsior Automated Tissue Processor for 14 hours. The process includes additional fixation in 10% buffered neutral formalin, dehydration through an ethanol gradient, and clearing with xylene at 40°C. Tissue was then embedded on a Leica EF 1140 H tissue embedding center in paraffin blocks for sectioning. Paraffin blocks were sectioned at 5 microns on a Reichert-Jung RM2065 microtome using Accu-Edge High Profile disposable stainless steel microtome blades. Three serial sections at intervals of 30 microns were obtained and placed on Super-frost Plus slides for hematoxylin and eosin staining (H&E). Staining was performed using a Sakura DRS-601 automatic slide stainer with a regressive Harris hematoxylin and Eosin Y Alcoholic for histological and morphological examination.
Histological sections were scored based on three criteria: Bone Cross-Sectional Area, Bone Maturity and Cellular Activity. Each segment was scored based on a 0–4 point scale by two observers (blinded to the study) who evaluated the entire implant under 10× magnification.

[6] abbreviates: read-out: EC50 of BMP-2 binding to immobilized peptide.
Setting [7] is: Figure 5, growth factor titrated in TBST for 1 h on immobilized peptide, antibody and p-NPP detection, read-out: EC50, BMP-2 (cross-reactivity experiment).
Setting [8] is: group median, 2 μg rhBMP-2 with 50-fold molar excess of peptide in collagen gel, rat, 2 weeks, p<.0001 vs no peptide.

For the compound `CC(C)C[C@H](NC(=O)[C@H](C)NC(=O)[C@H](CO)NC(=O)[C@H](Cc1ccccc1)NC(=O)[C@H](CO)NC(=O)[C@H](CO)NC(=O)[C@H](Cc1ccccc1)NC(=O)[C@H](C)NC(=O)[C@H](CO)NC(=O)[C@H](CC(=O)O)NC(=O)[C@H](CO)NC(=O)[C@@H](N)CO)C(=O)N[C@@H](CCC(=O)O)C(=O)NCC(=O)N[C@@H](CO)C(=O)N[C@H](C(=O)N[C@H](C(=O)O)C(C)C)C(C)C` [Peptide B-6] (H-SSDSAFSSFSALEGSVV-OH), the EC50 in assay [1] was found to be 1.4 nM.

In the case of `CC(C)C[C@H](NC(=O)[C@H](C)NC(=O)[C@H](CO)NC(=O)[C@H](Cc1ccccc1)NC(=O)[C@H](CO)NC(=O)[C@@H](NC(=O)[C@H](Cc1c[nH]c2ccccc12)NC(=O)[C@H](C)NC(=O)CNC(=O)[C@H](C)NC(=O)[C@H](C)NC(=O)[C@H](C)NC(=O)[C@H](CCC(=O)O)NC(=O)CNC(=O)CN)C(C)C)C(=O)N[C@@H](CCC(=O)O)C(=O)N[C@@H](CO)C(=O)O` [Peptide B-7] (H-GGEAAAGAWVSFSALES-OH), in assay [1] (setting [6]), the EC50 amounted to 29 nM.

Regarding `CC(C)C[C@H](NC(=O)[C@H](CO)NC(=O)[C@H](CO)NC(=O)[C@H](Cc1ccccc1)NC(=O)[C@@H](NC(=O)[C@H](CCC(=O)O)NC(=O)[C@@H](N)Cc1c[nH]c2ccccc12)C(C)C)C(=O)N[C@@H](CCC(=O)O)C(=O)N[C@@H](CO)C(=O)NCC(=O)N[C@@H](CO)C(=O)N[C@H](C(=O)NCC(=O)N[C@@H](C)C(=O)NCC(=O)N[C@@H](C)C(=O)NCC(=O)O)C(C)C` [Peptide B-8] (H-WEVFSSLESGSVGAGAG-OH), the EC50 in assay [1] (setting [6]) turned out to be 5.4 nM.

As to `CC(C)C[C@H](NC(=O)[C@@H]1CCCN1C(=O)[C@H](Cc1ccccc1)NC(=O)[C@H](CCCNC(=N)N)NC(=O)[C@H](CC(C)C)NC(=O)[C@@H]1CCCN1C(=O)[C@H](CCC(=O)O)NC(=O)[C@@H](N)Cc1ccccc1)C(=O)N[C@@H](CCCCN)C(=O)NCC(=O)N[C@H](C(=O)N1CCC[C@H]1C(=O)N[C@H](C(=O)O)C(C)C)C(C)C` [Peptide B-9] (H-FEPLRFPLKGVPV-OH), in assay [1] (setting [6]), the EC50 amounted to 5.7 nM.

Take `CC(C)C[C@H](NC(=O)[C@H](CO)NC(=O)[C@H](CO)NC(=O)[C@H](Cc1ccccc1)NC(=O)[C@H](C)NC(=O)[C@H](CO)NC(=O)[C@H](Cc1ccccc1)NC(=O)[C@H](CO)NC(=O)CNC(=O)CNC(=O)[C@@H](N)CC(=O)O)C(=O)N[C@H](C(=O)N[C@@H](Cc1c[nH]c2ccccc12)C(=O)N[C@@H](C)C(=O)N[C@@H](C)C(=O)N[C@@H](CC(=O)O)C(=O)N[C@@H](CO)C(=O)O)C(C)C` [Peptide B-10] (H-DGGSFSAFSSLVWAADS-OH): the concentration for a half-maximal effect (EC50) in assay [1] (setting [6]) is 26 nM.

With `CC(C)C[C@H](NC(=O)[C@H](C)NC(=O)[C@H](CCC(=O)O)NC(=O)[C@H](Cc1ccccc1)NC(=O)[C@H](C)NC(=O)[C@H](CC(=O)O)NC(=O)[C@H](Cc1c[nH]c2ccccc12)NC(=O)[C@H](C)NC(=O)[C@H](CO)NC(=O)[C@H](C)NC(=O)[C@@H](NC(=O)[C@@H](NC(=O)CNC(=O)[C@H](Cc1c[nH]c2ccccc12)NC(=O)[C@@H](N)CC(=O)O)C(C)C)C(C)C)C(=O)N[C@@H](CC(=O)O)C(=O)N[C@@H](C)C(=O)O` [Peptide B-11] (H-DWGVVASAWDAFEALDA-OH), the EC50 in assay [1] (setting [6]) was 327 nM.

Turning to `CC(C)C[C@H](NC(=O)[C@H](CC(=O)O)NC(=O)[C@@H](NC(=O)[C@@H](N)CO)C(C)C)C(=O)N[C@@H](Cc1ccc(O)cc1)C(=O)N[C@@H](Cc1ccccc1)C(=O)N1CCC[C@H]1C(=O)N[C@@H](CC(C)C)C(=O)N[C@@H](CCCCN)C(=O)NCC(=O)N[C@@H](CC(=O)O)C(=O)N[C@H](C(=O)N[C@H](C(=O)O)C(C)C)C(C)C` [Peptide B-12] (H-SVDLYFPLKGDVV-OH), the EC50 in assay [1] (setting [6]) is 12 nM.

On to `CC(C)C[C@H](NC(=O)[C@H](CO)NC(=O)[C@H](CO)NC(=O)[C@H](Cc1ccccc1)NC(=O)[C@H](C)NC(=O)[C@H](CCC(=O)O)NC(=O)[C@H](Cc1c[nH]c2ccccc12)NC(=O)[C@H](C)NC(=O)CNC(=O)CNC(=O)CN)C(=O)N[C@@H](CO)C(=O)NCC(=O)N[C@@H](CO)C(=O)N[C@@H](CCCNC(=N)N)C(=O)N[C@H](C(=O)NCC(=O)N[C@@H](CO)C(=O)N[C@@H](CO)C(=O)NCC(=O)N[C@@H](CCCCNC(=O)CCCC[C@@H]1SC[C@@H]2NC(=O)N[C@@H]21)C(=O)O)C(C)C` [Peptide B-17] (H-GGGAWEAFSSLSGSRVGSSGK(Biotin)-OH), for which the EC50 stood at 1.4 nM in assay [1] (setting [7]), 17 nM in assay [2] and 1.3 nM in assay [3].

Regarding `CC(C)C[C@H](NC(=O)[C@H](C)NC(=O)CNC(=O)CN)C(=O)NCC(=O)N[C@@H](Cc1ccccc1)C(=O)N1CCC[C@H]1C(=O)N[C@@H](CC(C)C)C(=O)N[C@@H](CCCCN)C(=O)NCC(=O)N[C@@H](CCC(=O)O)C(=O)N[C@H](C(=O)N[C@H](C(=O)N[C@@H](CCC(=O)O)C(=O)NCC(=O)N[C@@H](Cc1c[nH]c2ccccc12)C(=O)N[C@@H](C)C(=O)NCC(=O)N[C@@H](CO)C(=O)N[C@@H](CO)C(=O)NCC(=O)N[C@@H](CCCCNC(=O)CCCC[C@@H]1SC[C@@H]2NC(=O)N[C@@H]21)C(=O)O)C(C)C)C(C)C` [Peptide B-18] (H-GGALGFPLKGEVVEGWAGSSGK(Biotin)-OH), the EC50 in assay [1] (setting [7]) is 2.8 nM; in assay [1] (setting [6]) it was 1.9 nM; in assay [2], 16.2 nM; in assay [3] it was 6.5 nM.

As for “SWWGFWNGSAAPVWSR-GSSG-AGALGFPLKGEVVEGWA-GSSGK(Biotin) [BC-2]”, in assay [4], the “Binding of BMP-2 by bifunctional peptide” value is listed as “bound BMP-2”.

“SWWGFWNGSAAPVWSR-GSSG-AGAWEAFSSLSGSRV-GSSGK(Biotin) [BC-1]”: in assay [5] (setting [8]), the “Median histology score: Bone area” value is reported as 2.1 (26–35% of Implant Shows Evidence of Bone Formation), the “Median histology score: Bone maturity” value is listed as 3.0 and the “Median histology score: Osteogenic cellular activity” value came out at 2.6. In assay [5] (rats implanted with collagen gel containing 1 or 5 μg of BMP-2, with or without peptide, data not shown), the “Bone formation in preliminary experiments” value is “bone formation at both doses”. For the same compound, in assay [4], the “Binding of BMP-2 by bifunctional peptide” value is given as “bound BMP-2”.
